{"source": "patent US20060094068A1", "about": "“Predictive markers in cancer therapy” (priority 2002, published 2006)", "key": {"[1]": {"tested_on": "ERK MAP kinases and PKB/Akt", "conditions": "SKOV (human ovarian cancer) cells, preincubation; cited from earlier work"}, "activated MAPK and Ki-67": {"tested_on": "activated MAPK and Ki-67", "conditions": "humans, phase I trials, normal skin biopsies before and after administration; cited from earlier work"}, "HN5 cells [2]": {"tested_on": "HN5 cells", "experiment": "Apoptosis and growth arrest in HN5 cells", "assay_type": "cell-based, human"}, "AKT [3]": {"tested_on": "AKT", "experiment": "p-AKT in HN5 tumor xenografts (Western blot)", "assay_type": "in vivo, CD-1 nude mice", "method": "(§1) HN5 cells were grown in DMEM supplemented with 10% fetal bovine serum, sodium pyruvate and L-glutamine at 37° C. in a 95/5% air/CO2 atmosphere. […] Cells (2×10^6/mouse) in 0.2 ml were injected into the right flank of CD-1 nude mice. Female CD-1 nude mice were acquired from Charles River Laboratories. Mice were maintained in filter-topped cages in an aseptic environment with laminar flow filtered ventilation. […] Tumors were biopsied pre-treatment and 4 hours after the last dose. All animal surgery was conducted under aseptic conditions. For the initial biopsy, mice were anesthetized with isofluorane inhalation. The skin over the tumor was disinfected with iodine. A small hemostat was used to tease away the skin from the tumor, and scissors were used to make a 1 cm incision over the tumor. A scalpel and forceps were used to remove approximately 100 mg of tumor. The tumor was then frozen in liquid nitrogen. Wound clips were used to close the incision. The anesthetized mice were kept warm until they recovered mobility, usually less than 1-2 minutes. For the terminal biopsy, mice were euthanized with CO2 inhalation, and the remainder of the tumor excised. HN5 tumors were placed on dry ice in vials containing cold isopentane, nd stored at −80° C. prior to study. […]"}, "Erk1/2 [4]": {"tested_on": "Erk1/2", "experiment": "p-Erk1/2 in Hb4a cells (Western blot)", "assay_type": "cell-based, human", "conditions": "72 h, GW572016 5 μM, Herceptin 10 μg/ml"}, "Erk1/2 [5]": {"tested_on": "Erk1/2", "experiment": "Clinical trial, localisation of total Erk1/2 in tumor biopsies (IHC)", "conditions": "patient 361, day 21; before treatment nuclear", "text": "Erk1/2 (1:1200), erbB3 (1:10), heregulin (1:25), and TGFα (1:20) were also immunostained using the BenchMark™ with I-VIEW detection chemistry."}, "Hb4a cells": {"tested_on": "Hb4a cells", "experiment": "Hb4a cell growth, viable cell count by trypan blue exclusion", "assay_type": "cell-based, human", "conditions": "GW572016 2.5 μM + EGF 50 ng/ml, 72 h", "method": "Exponentially growing Hb4a cells were cultured in 35 mm petri dishes with serum-free medium containing 1.5% BSA. […] Viable cells were counted after 72 h using trypan blue exclusion."}, "solid tumors": {"tested_on": "solid tumors", "experiment": "Clinical trial, clinical response (RECIST re-staging at eight weeks)", "conditions": "for Clinical response at 8 weeks: 1200 mg/d"}, "p-AKT": {"tested_on": "p-AKT", "experiment": "Clinical trial, p-AKT in sequential tumor biopsies (quantitative IHC)", "conditions": "patient 361, after 21 days of treatment"}, "cyclin D1": {"tested_on": "cyclin D1", "experiment": "Clinical trial, cyclin D1 in sequential tumor biopsies (quantitative IHC)"}, "AKT [6]": {"tested_on": "AKT", "experiment": "AKT phosphorylation in S1 cells", "assay_type": "cell-based, human"}, "Erk1/2 [7]": {"tested_on": "Erk1/2", "experiment": "Erk1/2 activation in BT474 cells (Western blot)", "assay_type": "cell-based, human"}, "erbB2 [8]": {"target": "T1, erbB2 (Homo sapiens, UniProt P04626)", "T1 sequence (P04626 23-1255)": "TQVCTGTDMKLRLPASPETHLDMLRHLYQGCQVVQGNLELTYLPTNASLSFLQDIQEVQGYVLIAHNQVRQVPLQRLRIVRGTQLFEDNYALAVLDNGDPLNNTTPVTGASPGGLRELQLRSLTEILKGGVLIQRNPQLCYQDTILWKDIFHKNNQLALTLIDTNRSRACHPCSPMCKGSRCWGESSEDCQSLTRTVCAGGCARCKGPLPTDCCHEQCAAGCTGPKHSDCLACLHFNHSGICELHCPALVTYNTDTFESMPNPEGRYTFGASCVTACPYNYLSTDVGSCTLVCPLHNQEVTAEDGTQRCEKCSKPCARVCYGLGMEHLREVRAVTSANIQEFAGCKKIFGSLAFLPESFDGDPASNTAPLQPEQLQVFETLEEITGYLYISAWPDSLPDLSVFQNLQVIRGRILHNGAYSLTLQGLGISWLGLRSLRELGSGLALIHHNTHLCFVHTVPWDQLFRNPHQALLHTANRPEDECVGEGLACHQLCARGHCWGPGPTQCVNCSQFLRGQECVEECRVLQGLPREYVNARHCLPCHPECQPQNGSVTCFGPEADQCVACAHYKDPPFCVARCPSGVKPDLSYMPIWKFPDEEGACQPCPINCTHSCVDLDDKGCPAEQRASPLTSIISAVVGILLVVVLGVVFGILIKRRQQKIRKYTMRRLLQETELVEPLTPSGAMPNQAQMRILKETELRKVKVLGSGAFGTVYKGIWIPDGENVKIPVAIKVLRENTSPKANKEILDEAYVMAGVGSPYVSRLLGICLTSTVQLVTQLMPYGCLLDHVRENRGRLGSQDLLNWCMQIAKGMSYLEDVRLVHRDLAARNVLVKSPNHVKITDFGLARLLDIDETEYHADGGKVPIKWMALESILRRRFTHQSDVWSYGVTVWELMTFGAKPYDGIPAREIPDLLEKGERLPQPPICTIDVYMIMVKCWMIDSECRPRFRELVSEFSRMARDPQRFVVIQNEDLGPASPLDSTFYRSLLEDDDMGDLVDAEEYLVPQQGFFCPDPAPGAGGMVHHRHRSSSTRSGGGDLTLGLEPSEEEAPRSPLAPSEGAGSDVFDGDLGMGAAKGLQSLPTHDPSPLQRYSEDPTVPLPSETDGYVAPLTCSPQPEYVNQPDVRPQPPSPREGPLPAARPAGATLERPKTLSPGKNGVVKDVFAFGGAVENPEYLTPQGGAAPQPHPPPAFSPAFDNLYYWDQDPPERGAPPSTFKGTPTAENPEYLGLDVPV", "experiment": "EGF stimulation experiment, p-Tyr/erbB2 in BT474 cells", "conditions": "1 μM, 24 h, serum-free, with or without EGF 50 ng/ml"}, "erbB2 [9]": {"target": "T1, erbB2", "experiment": "Clinical trial, erbB2 p-tyr and total erbB2 in tumor biopsies (IHC)", "conditions": "patient 361, 1200 mg/day"}, "p-Erk1/2": {"tested_on": "p-Erk1/2", "experiment": "Clinical trial, p-ERK index in sequential tumor biopsies (quantitative IHC)", "conditions": "patient 361, day 21"}, "AKT [10]": {"tested_on": "AKT", "experiment": "AKT activation in HN5 cells (Western blot)", "assay_type": "cell-based, human", "conditions": "5 μM, 24 h"}, "HN5 cells [11]": {"tested_on": "HN5 cells", "conditions": "cited from earlier work"}, "Erk1/2 [12]": {"tested_on": "Erk1/2", "experiment": "Quantitative IHC of Erk1/2 in tumor xenografts", "assay_type": "in vivo, mice", "source_text": "DAB (Dako) was used as the chromogen.\nInhibition of erbB2/EGFR p-tyr in turn led to the inhibition of downstream activated, phospho-Erk1/2."}, "Erk1/2 [13]": {"tested_on": "Erk1/2", "experiment": "Erk1/2 activation in HN5 cells (Western blot)", "assay_type": "cell-based, human"}, "erbB2 [14]": {"target": "T1, erbB2", "experiment": "Quantitative IHC of erbB2 in HN5 and BT474 xenografts", "assay_type": "in vivo, mice", "conditions": "200 mg/kg oral once daily"}, "Erk1/2 [15]": {"tested_on": "Erk1/2", "experiment": "p-Erk1/2 in HN5 tumor xenografts (Western blot)", "assay_type": "in vivo, CD-1 nude mice", "method": "as §1"}, "S1 cells": {"tested_on": "S1 cells", "experiment": "Cell cycle analysis / apoptosis in S1 cells (propidium iodide flow cytometry)", "conditions": "5 μM, 72 h", "experimental": "Cells were harvested and fixed with 70% ethanol in PBS. Cell pellets were then resuspended in 0.5 ml PBS containing propidium iodide (50 μg/ml) and DNase-free RNase (100 μg/ml). Cell cycle analysis was performed using a BD Flow Cytometer (Becton Dickinson, San Jose, Calif., USA).\nAfter 72 h, cell cycle analysis was performed using propidium iodide staining and flow cytometry as described in Materials and methods."}, "AKT [16]": {"tested_on": "AKT", "experiment": "AKT activation in BT474 cells (Western blot)", "assay_type": "cell-based, human", "conditions": "1 μM, 24 h, with or without EGF"}, "[17]": {"conditions": "72 h, GW572016 500 nM or 1 μM, Herceptin 10 μg/ml"}}, "note": "“Also recorded” adds a separate entry of the source.", "data": [{"smiles": "COc1cc2ncnc(Nc3ccc(F)c(Cl)c3)c2cc1OCCCN1CCOCC1", "note": "[ZD1839]", "values": [{"measurement": "EGF-induced increases in activation of ERK MAP kinases and PKB/Akt", "setting": "[1]", "result": "block EGF-induced increases in activation of ERK MAP kinases and PKB/Akt"}, {"measurement": "Expression of activated MAPK and Ki-67 in keratinocytes", "setting": "activated MAPK and Ki-67", "result": "decreased expression of both activated MAPK and Ki-67"}]}, {"smiles": "CS(=O)(=O)CCNCc1ccc(-c2ccc3ncnc(Nc4ccc(OCc5cccc(F)c5)c(Cl)c4)c3c2)o1", "note": "[GW572016, N-{3-Chloro-4-[(3-fluorobenzyl)oxy]phenyl}-6-[5-({[2-(methylsulfonyl)ethyl]amino}methyl)-2-furyl]4-quinazolinamine]", "values": [{"measurement": "Growth arrest", "setting": "HN5 cells [2]", "result": "growth arrest was seen"}, {"measurement": "p-AKT", "setting": "AKT [3]; 10 mg/kg", "result": "little effect"}, {"measurement": "p-AKT", "setting": "AKT [3]; 30 mg/kg/dose", "result": "inhibited p-Erk1/2 and p-AKT"}, {"measurement": "Baseline p-Erk", "setting": "Erk1/2 [4]", "result": "reduced the baseline amount of p-Tyr/erbB2 and p-Erk, effects not reversed by EGF; also recorded: decreased"}, {"measurement": "Localisation of total Erk1/2 protein", "setting": "Erk1/2 [5]", "result": "almost entirely cytoplasmic"}, {"measurement": "Growth inhibition with concurrent EGF", "setting": "Hb4a cells", "result": "did not reverse"}, {"measurement": "Clinical response at 8 weeks", "setting": "solid tumors; patient 361, breast", "result": "partial responses"}, {"measurement": "Sequentially biopsied metastatic lymph node", "setting": "solid tumors; patient 364, 1600 mg/day, at day 21 biopsy", "result": "had reduced in size"}, {"measurement": "Clinical response at 8 weeks", "setting": "solid tumors; patient 372, breast", "result": "partial responses"}, {"measurement": "Stable Disease at eight weeks", "setting": "solid tumors; patients with >70% decrease in pERK index", "result": "Stable Disease: 3/5"}, {"measurement": "Inhibition of p-AKT", "setting": "p-AKT", "result": 33, "unit": "%"}, {"measurement": "Inhibition of expressed cyclin D1 protein", "setting": "cyclin D1; patient 361, day 21", "result": 90, "unit": "%"}, {"measurement": "Decrease in cyclin D1", "setting": "cyclin D1; patient 372, day 21", "result": 80, "unit": "%"}, {"measurement": "Baseline phosphorylation of AKT", "setting": "AKT [6]", "result": "inhibits baseline phosphorylation of AKT"}, {"measurement": "EGF stimulation of p-Erk1/2", "setting": "Erk1/2 [7]; 1 μM, 24 h, EGF 50 ng/ml", "result": "inhibited EGF stimulation of p-Erk1/2"}, {"measurement": "p-Erk1/2 levels compared with untreated controls", "setting": "Erk1/2 [7]; [17]", "result": "inhibited p-Erk1/2"}, {"measurement": "Baseline levels of p-Tyr/erbB2", "setting": "erbB2 [8]", "result": "inhibited baseline levels of p-Tyr/erbB2, an effect not reversed by EGF"}, {"measurement": "Total erbB2 protein", "setting": "erbB2 [9]", "result": "had no effect"}, {"measurement": "erbB2 p-tyr", "setting": "erbB2 [9]; day 21", "result": "did not inhibit"}, {"measurement": "Activated Erk1/2 in re-biopsy of metastatic subcutaneous nodule", "setting": "p-Erk1/2", "result": "completely inhibited; also recorded: completely inactivated"}, {"measurement": "p-AKT", "setting": "AKT [10]", "result": "inhibits baseline phosphorylation of AKT"}, {"measurement": "Apoptosis (Rusnak et al.)", "setting": "HN5 cells [11]", "result": "increased only slightly"}, {"measurement": "Total Erk1/2 protein (IHC)", "setting": "Erk1/2 [12]", "result": "unaffected"}, {"measurement": "p-Erk1/2 levels (IHC)", "setting": "Erk1/2 [12]", "result": "reduced"}, {"measurement": "Downstream p-Erk1/2", "setting": "Erk1/2 [13]; 5 μM, 24 h", "result": "inhibited downstream p-Erk1/2"}, {"measurement": "p-Erk1/2 levels compared with untreated controls", "setting": "Erk1/2 [13]; [17]", "result": "inhibited p-Erk1/2"}, {"measurement": "Activated erbB2 (IHC)", "setting": "erbB2 [14]", "result": "inhibition of activated EGFR and erbB2 in a dose-dependent manner"}, {"measurement": "erbB2 total protein (IHC)", "setting": "erbB2 [14]", "result": "neither EGFR nor erbB2 total protein was affected"}, {"measurement": "p-Erk1/2", "setting": "Erk1/2 [15]; 10 mg/kg", "result": "little effect"}, {"measurement": "p-Erk1/2", "setting": "Erk1/2 [15]; 30 mg/kg/dose", "result": "inhibited p-Erk1/2 and p-AKT"}, {"measurement": "Increase in percentage of apoptotic cells vs vehicle controls", "setting": "S1 cells", "result": 23, "unit": "fold"}, {"measurement": "p-AKT (Ser 473)", "setting": "AKT [16]", "result": "completely inhibited p-AKT"}]}]}
